According to patent US8560243B2, “Methods for determining therapeutic index from gene expression profiles” (Microsoft Corporation, priority 1998, dated 2013):

What was measured:
off-target genes = assay: Transcriptional response to FK506 titration in yeast strain with CNA1 and CNA2 deleted; type: cell-based, S. cerevisiae
Source text: The response of those genes to FK506 were considered as off-target activity. Each ORF (Open Reading Frame) may be corresponding to an off-target gene.

yeast gene YOL031C = assay: Yeast gene expression response to methotrexate exposure, Hill function fit; type: cell-based, S. cerevisiae; settings: least squares fit
Source text: FIG. 4 illustrates the fit of a Hill function to the response of gene YOL031C illustrated in FIG. 3.
[formula] The adjustable parameters are selected independently for each cellular constituent of the drug response and for each cellular constituent of the pathway response. Preferably, the adjustable parameters are selected so that for each cellular constituent of each pathway response the sum of the squares of the distances of H(pi,l) from Ri,l(Pi,l) is minimized, and so that for each cellular constituent of the drug response the sum of the squares of the distances of H(tl) from Dk(tl) is minimized. This preferable parameter adjustment method is known in the art as a least squares fit of H( ) to Ri,k( ) or to Dk( ). Other possible model functions are based on polynomial fitting, for example by various known classes of polynomials.
Model fitting with a Hill function is illustrated with respect to FIGS. 3 and 4. As discussed, FIG. 3 illustrates an example of a pathway perturbed by methotrexate and identified by measurement. This figure illustrates the mRNA expression levels of 30 genes of the yeast S. cerevisiae that, of the approximately 6000 genes in the genome of this yeast, had the largest expression changes in response to six different exposure levels of methotrexate. FIG. 4 illustrates a fit of the pathway response of one of these gene expression levels by a Hill function. In particular, the yeast gene YOL031C was fit by a Hill function with parameters n=2, a=−0.61, and log10 (u0)=1.26 selected by the previously described least squares method.

yeast = assay: Growth of yeast under methotrexate titration; type: cell-based, S. cerevisiae; settings: 100 μM titration

Source text for calcineurin pathway: In this example, the expression of a number of genes are monitored as a wild type yeast culture is subjected to a graded levels of the drug FK506 (FIG. 8A). Similar experiments are repeated with a yeast culture whose CNA1 and CNA2 genes are deleted (FIG. 8B). CNA1 and CNA2 are two components of the calcineurin multi-protein complex. Because the drug FK506 acts upon the calcineurin protein to exert its activity on the calcineurin pathway. Deletion of CNA1 and CNA2 eliminates the primary target pathway for FK506. […]
Control cultures were treated with the same volume of just ethanol. Growth was monitored by OD600 and cells were harvested at OD600=1.4+/−0.1 by centrifugation for 2 min at ambient temperature in a Sorvall RC5C+ centrifuge in a SLA-1500 rotor. […]
Extent of hybridization was determined by scanning with a prototype multi-frame CCD camera slides produced by Applied Precision, Inc. Images were processed by informatics and imported into the Inpharna database and analyzed using the MatLab data analysis package.
The horizontal axis is concentrations of the FK506 in logarithmic scale and the vertical axis is the values of the logarithm of the expression ratio of the genes most affected by FK506 on the vertical axis. […] P-Value is the probability that the up or down regulation is due to measurement error, as determined from observed statistics of the errors in Log 10 (expression ratio).

## C=CC[C@@H]1/C=C(\C)C[C@H](C)C[C@H](OC)[C@H]2O[C@@](O)(C(=O)C(=O)N3CCCC[C@H]3C(=O)O[C@H](/C(C)=C/[C@@H]3CC[C@@H](O)[C@H](OC)C3)[C@H](C)[C@@H](O)CC1=O)[C@H](C)C[C@@H]2OC [FK506]
off-target genes; ORF ARG1, deletion strain
  Log10(Ratio): 0.9516
off-target genes; ORF ARG4, deletion strain
  Log10(Ratio): 0.7774
off-target genes; ORF ARG5, 6, deletion strain
  Log10(Ratio): 0.9136
off-target genes; ORF ARO3, deletion strain
  Log10(Ratio): 0.6261
off-target genes; ORF CPA1, deletion strain
  Log10(Ratio): 0.5645
off-target genes; ORF CPA2, deletion strain
  Log10(Ratio): 0.645
off-target genes; ORF ECM13, deletion strain
  Log10(Ratio): 0.8176
off-target genes; ORF GRE2, deletion strain
  Log10(Ratio): 0.6836
off-target genes; ORF HIS3, deletion strain
  Log10(Ratio): 0.6152
off-target genes; ORF HIS4, deletion strain
  Log10(Ratio): 0.8178
off-target genes; ORF HIS5, deletion strain
  Log10(Ratio): 0.8266
off-target genes; ORF NCE3, deletion strain
  Log10(Ratio): 0.5112
off-target genes; ORF PDR5, deletion strain
  Log10(Ratio): 0.597
off-target genes; ORF RIB5, deletion strain
  Log10(Ratio): 0.7436
off-target genes; ORF SNO1, deletion strain
  Log10(Ratio): 0.7711
off-target genes; ORF SNQ2, deletion strain
  Log10(Ratio): 0.6624
off-target genes; ORF SNZ1, deletion strain
  Log10(Ratio): 0.9834
off-target genes; ORF YER175C, deletion strain
  Log10(Ratio): 1.0121
off-target genes; ORF YGL117W, deletion strain
  Log10(Ratio): 0.8608
off-target genes; ORF YHM1, deletion strain
  Log10(Ratio): 0.5235
off-target genes; ORF YMR085W, deletion strain
  Log10(Ratio): 0.7679
off-target genes; ORF YMR097C, deletion strain
  Log10(Ratio): 0.6945
off-target genes; ORF YOL150C, deletion strain
  Log10(Ratio): 0.7246
off-target genes; ORF YOR1, deletion strain
  Log10(Ratio): 0.5928
off-target genes; ORF YOR203W, deletion strain
  Log10(Ratio): 0.6378
off-target genes; ORF YPL088W, deletion strain
  Log10(Ratio): 0.4764
off-target genes; by inspection of FIG. 8B, calcineurin-deleted strain
  toxic concentration: off-target transcriptional responses of many genes reach two-fold induction or repression: approximately 12 mg/ml
Calcineurin pathway
  concentration at which expression of most genes affected via the primary target (calcineurin pathway) reaches two fold induction or repression: 200 ng/mL
  concentration at which expression of most off-target genes reaches two fold induction or repression: 12000 ng/mL

## CN(Cc1cnc2nc(N)nc(N)c2n1)c1ccc(C(=O)N[C@@H](CCC(=O)O)C(=O)O)cc1 [methotrexate]
Yeast gene YOL031C
  Hill function parameter a: −0.61
  Hill function parameter n: 2
Yeast gene YOL031C; exposure levels in μM
  Hill function parameter log10 (u0): 1.26
yeast
  growth defect: 50%
